The values that follow come from patent publication US11708367B2, “Compounds for the treatment of kinase-dependent disorders” (Exelixis, Inc., priority 2018, dated 2023).

By IC50 is commonly meant the concentration needed to halve the response being measured.

Common to all, as to assay type: cell-based
For assay [1], the target named is AXL (Homo sapiens (Human), UniProt P30530). The assay can be described thus: AXL autophosphorylation ELISA in A-172 cells. The conditions noted are these: cellular, Gas6-stimulated, phospho-AXL ELISA. The method, then:
A-172 glioblastoma cells (ATCC #CRL-1620) were seeded at 2.5×10^5 cells/well onto 24-well plates (Greiner #662165), in DMEM (Thermo Fisher #11995-040) containing 10% FBS (Thermo Fisher #26140-079), 1% MEM NEAA (Thermo Fisher #11140-050), 1% GlutaMax (Thermo Fisher #35050-061), and 1% Penicillin Streptomycin (Thermo Fisher #15140-122). A-172 cells were incubated at 37° C., 5% CO2 for 24 h and then starved for 24 h in serum-free medium. Test compounds were serially diluted to produce an 8-point dose curve in fresh serum-free medium to a final concentration of 0.3% DMSO (vehicle) and added to the cells and incubated for 1 h. Cells were then stimulated with 1 μg/mL recombinant human Gas6 (R&D Systems #885-GSB-500) for 15 min, washed with cold PBS, and immediately lysed with 150 μL of cold IX lysis buffer [20 mM Tris, 137 mM sodium chloride, 2 mM EDTA, 10% glycerol, 1% NP-40 alternative, 1 mM activated sodium orthovanadate, 1 mM PefaBloc SC (Sigma-Aldrich #11429868001), protease/phosphatase inhibitor tablet (Thermo Fisher #A32959)]. Lysates were collected and 100 μL/well added into the human phospho-AXL Duo Set IC ELISA (R&D Systems #DYC2228-2). Assay was performed according to manufacturer's instructions and sample phospho-AXL concentrations were extrapolated using human phospho-AXL control (R&D Systems #841645) as a standard. Positive control wells (100% activity) contained Gas6-stimulated, DMSO-treated cell lysates. Negative control wells (0% activity) contained Gas6-stimulated, reference inhibitor-treated cell lysates. IC50 values were calculated by nonlinear regression analysis using a 4-parameter logistic curve fit in ActivityBase XL (IDBS).

Assay [2] concerns the target Mer (Homo sapiens (Human), UniProt Q12866). The assay can be described thus: Mer autophosphorylation ELISA in transient transfected 293A cells. The note with it: cellular, MERTK-transfected 293A cells, phospho-Mer ELISA. The method, then:
293A cells (Thermo Fisher #R70507) were seeded at 1.5×10^6 cells/well onto 100 mm dish (Greiner #664169), in DMEM (Thermo Fisher #11995-040) containing 10% FBS (Thermo Fisher #26140-079), 1% MEM NEAA (Thermo Fisher #11140-050), 1% GlutaMax (Thermo Fisher #35050-061), and 1% Penicillin Streptomycin (Thermo Fisher #15140-122). 293A cells were incubated at 37° C., 5% CO2 for 24 h and then transfected with 6 μg MERTK DNA (Genecopoeia #EX-Z8208-M02) using TransIT LT1 transfection reagent (Mirus-Bio #MIR2305). After 24 h incubation, the transfected 293A cells were seeded at 1×10^5 cells/well onto 96-well plates (Corning #3904) in DMEM growth medium overnight. Test compounds were serially diluted to produce an 8-point dose curve in fresh serum-free medium to a final concentration of 0.3% DMSO (vehicle) and added to the cells and incubated for 1 h. Cells were then immediately lysed with 150 μL of cold IX lysis buffer [20 mM Tris, 137 mM sodium chloride, 2 mM EDTA, 10% glycerol, 1% NP-40 alternative, 1 mM activated sodium orthovanadate, 1 mM PefaBloc SC (Sigma-Aldrich #11429868001), protease/phosphatase inhibitor tablet (Thermo Fisher #A32959)]. Lysates were clarified by centrifugation and 50 μL/well added into the human phospho-Mer DuoSet IC ELISA (R&D Systems #DYC2579-2). Assay was performed according to manufacturer's instructions and sample phospho-Mer concentrations were extrapolated using human phospho-Mer control (R&D Systems #841793) as a standard. Positive control wells (100% activity) contained DMSO-treated cell lysates. Negative control wells (0% activity) contained reference inhibitor-treated cell lysates. IC50 values were calculated by nonlinear regression analysis using a 4-parameter logistic curve fit in ActivityBase XE (IDBS).
Background: In an ELISA, binding on a coated surface is turned into a signal by an enzyme label.

Assay [3] concerns the target Met (Homo sapiens (Human), UniProt P08581). The assay can be described thus: Met autophosphorylation ELISA in PC-3 cells. The conditions noted are these: cellular, HGF-stimulated, phospho-Met ELISA, read-out: c-Met IC50. As to the method:
PC-3 prostate cancer cells (ATCC #CRL-1435) were seeded at 4×10^4 cells/well onto 24-well plates (Greiner #662165), in DMEM (Thermo Fisher #11995-040) containing 10% FBS (Thermo Fisher #26140-079), 1% MEM NEAA (Thermo Fisher #11140-050), 1% GlutaMax (Thermo Fisher #35050-061), and 1% Penicillin Streptomycin (Thermo Fisher #15140-122). PC-3 cells were incubated at 37° C., 5% CO2 for 24 h and then starved for 3 h in serum-free medium. Test compounds were serially diluted to produce an 8-point dose curve in fresh serum-free medium to a final concentration of 0.3% DMSO (vehicle) and added to the cells and incubated for 1 h. Cells were then stimulated with 100 ng/mL recombinant human HGF (R&D Systems #294-HG-250) for 10 min, washed with cold PBS, and immediately lysed with 130 μL of cold IX lysis buffer [20 mM Tris, 137 mM sodium chloride, 2 mM EDTA, 10% glycerol, 1% NP-40 alternative, 1 mM activated sodium orthovanadate, 1 mM PefaBloc SC (Sigma-Aldrich #11429868001), protease/phosphatase inhibitor tablet (Thermo Fisher #A32959)]. Lysates were clarified by centrifugation and 100 μL/well added into the PathScan phospho-Met (panTyr) Sandwich ELISA (Cell Signaling Technology #7333). Assay was performed according to manufacturer's instructions. Positive control wells (100% activity) contained HGF-stimulated, DMSO-treated cell lysates. Negative control wells (0% activity) contained HGF-stimulated, reference inhibitor-treated cell lysates. IC50 values were calculated by nonlinear regression analysis using a 4-parameter logistic curve fit in ActivityBase XL (IDBS).

Assay [4] addresses KDR (Homo sapiens (Human), UniProt P35968). Description: KDR autophosphorylation ELISA in HUVEC cells. The conditions noted are these: cellular, VEGF165-stimulated, phospho-KDR ELISA. As to the method:
Human umbilical vein endothelial cells or HUVEC (Lonza #C2519A) were seeded at 2×10^4 cells/well onto 96-well plates (Corning #3904), in EGM-2 growth medium (Lonza #CC-3162) containing 1% Penicillin Streptomycin (Thermo Fisher #15140-122). HUVEC cells were incubated at 37° C., 5% CO2 for 24 h and then starved for 24 h in serum-free EBM-2 basal medium (Lonza #CC-3156) containing 1% Penicillin Streptomycin. Test compounds were serially diluted to produce an 8-point dose curve in fresh serum-free medium to a final concentration of 0.3% DMSO (vehicle) and added to the cells and incubated for 1 h. Cells were then stimulated with 100 ng/mL recombinant human VEGF165 (R&D Systems #293-VE-500) for 5 min, washed with cold PBS, and immediately lysed with 130 μL of cold 1× lysis buffer [20 mM Tris, 137 mM sodium chloride, 2 mM EDTA, 10% glycerol, 1% NP-40 alternative, 1 mM activated sodium orthovanadate, 1 mM PefaBloc SC (Sigma-Aldrich #11429868001), protease/phosphatase inhibitor tablet (Thermo Fisher #A32959)]. Lysates were collected and 100 μL/well added into the human phospho-KDR Duo Set IC ELISA (R&D Systems #DYC 1766-2). Assay was performed according to manufacturer's instructions and sample phospho-KDR concentrations were extrapolated using human phospho-KDR control (R&D Systems #841421) as a standard. Positive control wells (100% activity) contained VEGF165-stimulated, DMSO-treated cell lysates. Negative control wells (0% activity) contained non-stimulated cell lysates. IC50 values were calculated by nonlinear regression analysis using a 4-parameter logistic curve fit in ActivityBase XE (IDBS).

Sequence of Mer (Q12866 21-999): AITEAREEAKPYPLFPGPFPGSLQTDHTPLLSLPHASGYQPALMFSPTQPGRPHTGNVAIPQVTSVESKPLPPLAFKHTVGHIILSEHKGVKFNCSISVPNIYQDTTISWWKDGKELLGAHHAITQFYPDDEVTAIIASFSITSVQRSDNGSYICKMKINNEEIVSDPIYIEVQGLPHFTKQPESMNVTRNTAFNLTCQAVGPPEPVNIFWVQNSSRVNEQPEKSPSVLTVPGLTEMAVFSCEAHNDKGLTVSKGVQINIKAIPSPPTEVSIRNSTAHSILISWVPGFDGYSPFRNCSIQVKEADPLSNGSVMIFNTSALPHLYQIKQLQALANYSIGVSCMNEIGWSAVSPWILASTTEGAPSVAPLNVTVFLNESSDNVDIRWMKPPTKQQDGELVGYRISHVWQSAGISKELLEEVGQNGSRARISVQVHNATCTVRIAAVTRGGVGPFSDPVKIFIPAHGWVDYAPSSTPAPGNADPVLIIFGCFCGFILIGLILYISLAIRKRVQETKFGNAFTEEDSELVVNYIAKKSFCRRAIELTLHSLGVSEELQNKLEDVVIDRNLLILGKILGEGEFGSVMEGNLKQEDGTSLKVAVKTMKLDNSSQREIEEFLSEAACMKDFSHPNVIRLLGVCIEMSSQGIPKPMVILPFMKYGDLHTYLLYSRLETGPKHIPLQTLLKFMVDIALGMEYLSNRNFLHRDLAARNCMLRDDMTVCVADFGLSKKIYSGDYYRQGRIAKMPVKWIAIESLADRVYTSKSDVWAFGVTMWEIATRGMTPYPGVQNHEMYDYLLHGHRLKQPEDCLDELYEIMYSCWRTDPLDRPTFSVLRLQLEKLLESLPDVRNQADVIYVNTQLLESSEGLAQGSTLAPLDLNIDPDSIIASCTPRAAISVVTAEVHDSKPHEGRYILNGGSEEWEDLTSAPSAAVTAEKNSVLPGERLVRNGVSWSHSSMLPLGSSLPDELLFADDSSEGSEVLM
Sequence of Met (P08581 25-1390): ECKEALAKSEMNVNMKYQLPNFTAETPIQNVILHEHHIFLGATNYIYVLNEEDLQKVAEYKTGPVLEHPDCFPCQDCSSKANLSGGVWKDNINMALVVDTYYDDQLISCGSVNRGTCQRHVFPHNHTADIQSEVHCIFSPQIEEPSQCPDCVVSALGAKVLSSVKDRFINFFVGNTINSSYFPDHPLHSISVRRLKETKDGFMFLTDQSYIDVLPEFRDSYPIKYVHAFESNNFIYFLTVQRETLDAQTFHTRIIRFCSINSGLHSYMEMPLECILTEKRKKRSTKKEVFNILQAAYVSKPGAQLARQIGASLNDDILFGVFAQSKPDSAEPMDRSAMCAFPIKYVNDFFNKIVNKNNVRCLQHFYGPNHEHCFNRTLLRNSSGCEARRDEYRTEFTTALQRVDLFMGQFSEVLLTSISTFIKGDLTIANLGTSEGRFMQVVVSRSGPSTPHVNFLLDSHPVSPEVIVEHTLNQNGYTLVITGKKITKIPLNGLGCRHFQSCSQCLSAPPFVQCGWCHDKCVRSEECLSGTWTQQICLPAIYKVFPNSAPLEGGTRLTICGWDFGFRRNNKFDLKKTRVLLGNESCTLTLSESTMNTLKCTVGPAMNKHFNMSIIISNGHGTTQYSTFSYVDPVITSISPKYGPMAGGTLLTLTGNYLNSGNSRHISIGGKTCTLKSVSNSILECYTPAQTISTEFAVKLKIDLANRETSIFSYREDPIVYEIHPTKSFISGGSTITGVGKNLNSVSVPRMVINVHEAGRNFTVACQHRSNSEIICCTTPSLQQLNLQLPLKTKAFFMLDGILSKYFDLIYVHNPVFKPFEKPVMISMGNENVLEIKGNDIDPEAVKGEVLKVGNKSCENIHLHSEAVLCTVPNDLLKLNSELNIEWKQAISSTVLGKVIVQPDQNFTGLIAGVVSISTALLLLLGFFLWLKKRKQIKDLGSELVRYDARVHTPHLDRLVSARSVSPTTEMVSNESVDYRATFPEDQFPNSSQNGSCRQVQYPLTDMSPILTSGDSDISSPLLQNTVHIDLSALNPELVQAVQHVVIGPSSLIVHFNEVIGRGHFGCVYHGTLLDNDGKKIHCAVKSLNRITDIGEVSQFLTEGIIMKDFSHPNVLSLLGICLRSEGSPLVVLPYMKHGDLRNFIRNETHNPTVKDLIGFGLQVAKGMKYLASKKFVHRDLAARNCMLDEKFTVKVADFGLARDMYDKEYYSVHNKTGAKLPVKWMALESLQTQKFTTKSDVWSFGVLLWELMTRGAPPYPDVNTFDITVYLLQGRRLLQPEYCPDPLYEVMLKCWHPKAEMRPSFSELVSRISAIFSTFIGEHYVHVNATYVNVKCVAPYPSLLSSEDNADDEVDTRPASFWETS
Sequence of KDR (P35968 20-1356): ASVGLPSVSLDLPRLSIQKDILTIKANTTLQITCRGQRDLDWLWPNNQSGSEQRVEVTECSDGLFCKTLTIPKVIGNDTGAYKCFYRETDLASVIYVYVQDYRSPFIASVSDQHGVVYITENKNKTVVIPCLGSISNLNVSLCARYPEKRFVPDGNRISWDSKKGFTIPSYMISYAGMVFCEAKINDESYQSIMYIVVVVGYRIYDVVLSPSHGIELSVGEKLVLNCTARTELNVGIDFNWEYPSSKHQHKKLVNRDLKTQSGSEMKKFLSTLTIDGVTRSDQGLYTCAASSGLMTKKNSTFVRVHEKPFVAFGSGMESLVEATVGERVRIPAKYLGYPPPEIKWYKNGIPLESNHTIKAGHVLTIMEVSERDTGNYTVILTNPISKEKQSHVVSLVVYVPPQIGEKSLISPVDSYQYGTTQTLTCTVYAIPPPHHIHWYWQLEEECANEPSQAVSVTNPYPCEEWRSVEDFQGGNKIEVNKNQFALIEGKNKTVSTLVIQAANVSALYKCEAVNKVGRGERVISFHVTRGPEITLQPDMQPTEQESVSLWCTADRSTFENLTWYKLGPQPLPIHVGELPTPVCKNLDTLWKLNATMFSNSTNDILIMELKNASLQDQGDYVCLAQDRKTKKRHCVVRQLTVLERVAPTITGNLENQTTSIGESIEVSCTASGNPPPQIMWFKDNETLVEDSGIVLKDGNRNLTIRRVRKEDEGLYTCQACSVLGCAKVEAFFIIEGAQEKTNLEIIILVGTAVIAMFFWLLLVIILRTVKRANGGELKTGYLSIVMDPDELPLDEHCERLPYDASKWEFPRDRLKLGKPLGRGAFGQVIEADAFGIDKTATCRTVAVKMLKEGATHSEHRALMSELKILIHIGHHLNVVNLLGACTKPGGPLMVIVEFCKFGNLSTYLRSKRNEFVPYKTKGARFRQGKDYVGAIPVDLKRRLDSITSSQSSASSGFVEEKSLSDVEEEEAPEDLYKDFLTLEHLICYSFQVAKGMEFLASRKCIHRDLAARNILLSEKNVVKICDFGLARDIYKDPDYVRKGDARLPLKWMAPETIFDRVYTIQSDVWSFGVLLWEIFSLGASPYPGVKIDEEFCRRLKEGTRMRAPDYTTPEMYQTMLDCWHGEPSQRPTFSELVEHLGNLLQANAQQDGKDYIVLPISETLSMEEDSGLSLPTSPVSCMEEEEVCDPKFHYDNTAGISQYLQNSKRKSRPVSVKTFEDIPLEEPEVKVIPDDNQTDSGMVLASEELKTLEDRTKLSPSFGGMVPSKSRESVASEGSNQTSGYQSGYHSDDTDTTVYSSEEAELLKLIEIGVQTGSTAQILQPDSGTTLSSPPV
Sequence of AXL (P30530 26-894): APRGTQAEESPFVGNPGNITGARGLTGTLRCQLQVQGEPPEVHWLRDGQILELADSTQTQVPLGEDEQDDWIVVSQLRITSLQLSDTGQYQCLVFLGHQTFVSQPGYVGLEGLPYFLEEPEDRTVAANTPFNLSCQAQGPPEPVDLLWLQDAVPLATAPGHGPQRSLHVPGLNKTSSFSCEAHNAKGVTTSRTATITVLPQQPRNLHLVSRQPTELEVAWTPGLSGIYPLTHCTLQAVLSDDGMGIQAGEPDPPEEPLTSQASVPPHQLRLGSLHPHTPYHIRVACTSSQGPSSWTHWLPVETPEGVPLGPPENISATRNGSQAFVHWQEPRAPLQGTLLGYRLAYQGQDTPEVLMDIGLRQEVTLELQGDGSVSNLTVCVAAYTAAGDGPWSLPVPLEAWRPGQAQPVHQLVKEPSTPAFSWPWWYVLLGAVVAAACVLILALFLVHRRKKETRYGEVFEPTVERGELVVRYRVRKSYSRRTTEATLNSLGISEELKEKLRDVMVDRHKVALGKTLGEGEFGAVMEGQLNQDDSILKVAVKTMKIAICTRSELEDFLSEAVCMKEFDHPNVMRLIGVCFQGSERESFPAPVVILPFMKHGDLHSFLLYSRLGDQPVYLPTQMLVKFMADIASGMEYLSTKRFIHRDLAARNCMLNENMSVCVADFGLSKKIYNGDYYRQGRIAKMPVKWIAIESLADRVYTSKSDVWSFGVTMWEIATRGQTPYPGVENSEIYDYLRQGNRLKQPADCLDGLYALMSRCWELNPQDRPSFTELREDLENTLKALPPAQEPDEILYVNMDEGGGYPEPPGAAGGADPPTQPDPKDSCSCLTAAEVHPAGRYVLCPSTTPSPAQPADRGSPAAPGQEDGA

Turning to `COc1cnc2c(Oc3cc(F)c(NC(=O)C4(C(=O)Nc5ccc(F)cc5)CC4)cc3F)ncnc2c1` [Compound 19, 1-N′-[2,5-difluoro-4-(7-methoxypyrido[3,2-d]pyrimidin-4-yl)oxyphenyl]-1-N-(4-fluorophenyl)cyclo-propane-1,1-dicarboxamide], the IC50 lay within 10 to 100 nM in assay [1], 10 to 100 nM in assay [2], 10 to 100 nM in assay [3] and 100 to 300 nM in assay [4].
As for `COc1cc2ncnc(Oc3ccc(NC(=O)C4(C(=O)Nc5ccc(F)cc5)CC4)c(F)c3)c2nc1OC` [Compound 31, 1-N′-[4-(6,7-dimethoxy-pyrido[3,2-d]pyrimidin-4-yl)oxy-2-fluorophenyl]-1-N-(4-fluorophenyl)cyclo-propane-1,1-dicarboxamide], the IC50 is not above 10 nM in assay [1], 10 to 100 nM in assay [2], 10 to 100 nM in assay [3] and 10 to 100 nM in assay [4].
Consider `COc1cc2ncnc(Oc3ccc(NC(=O)C4(C(=O)Nc5ccc(F)cc5)CC4)c(F)c3F)c2nc1OC` [Compound 34, 1-N′-[4-(6,7-dimethoxypyrido[3,2-d]pyrimidin-4-yl)oxy-2,3-difluorophenyl]-1-N-(4-fluorophenyl)cyclo-propane-1,1-dicarbox-amide], for which the IC50 in assay [1] is not above 10 nM; in assay [2], not above 10 nM; in assay [3], 10 to 100 nM; in assay [4], 10 to 100 nM.
Consider `COc1cc2ncnc(Oc3cc(F)c(NC(=O)C4(C(=O)Nc5ccc(F)cc5)CC4)cc3F)c2nc1OC` [Compound 35, 1-N′-[4-(6,7-dimethoxypyrido[3,2-d]pyrimidin-4-yl)oxy-2,5-difluorophenyl]-1-N-(4-fluorophenyl)cyclo-propane-1,1-dicarboxamide], for which the IC50 in assay [1] was not above 10 nM; in assay [2], not above 10 nM; in assay [3] it was not above 10 nM; in assay [4] it was 10 to 100 nM.
On to `COc1nc2c(Oc3ccc(NC(=O)C4(C(=O)Nc5ccc(F)cc5)CC4)cc3C)ncnc2cc1OCCCN1CCOCC1` [Compound 68, 1-N-(4-fluorophenyl)-1-N′-[4-[6-methoxy-7-(3-morpholin-4-ylpropoxy)pyrido[3,2-d]pyrimidin-4-yl]oxy-3-methylphenyl]cyclopropane-1,1-dicarboxamide], for which the IC50 in assay [1] lay in the range of 10 to 100 nM; in assay [2] it was 10 to 100 nM; in assay [3], 100 to 300 nM; in assay [4] it was 10 to 100 nM.
On to `COc1nc2c(Oc3ccc(NC(=O)C4(C(=O)Nc5ccc(F)cc5)CC4)c(F)c3)ncnc2cc1OCCCN1CCOCC1` [Compound 69, 1-N′-[2-fluoro-4-[6-methoxy-7-(3-morpholin-4-ylpropoxy)pyrido[3,2-d]pyrimidin-4-yl]oxyphenyl]-1-N-(4-fluorophenyl)cyclo-propane-1,1-dicarboxamide], for which the IC50 in assay [1] was not above 10 nM; in assay [2], not above 10 nM; in assay [3], 10 to 100 nM; in assay [4] it was 10 to 100 nM.
On to `COc1nc2c(Oc3ccc(NC(=O)C4(C(=O)Nc5ccc(F)cc5)CC4)c(Cl)c3)ncnc2cc1OCCCN1CCOCC1` [Compound 70, 1-N′-[2-chloro-4-[6-methoxy-7-(3-morpholin-4-ylpropoxy)pyrido[3,2-d]pyrimidin-4-yl]oxyphenyl]-1-N-(4-fluorophenyl)cyclo-propane-1,1-dicarboxamide], for which the 50% inhibitory concentration (IC50) in assay [1] is 10 to 100 nM; in assay [2] it was 10 to 100 nM; in assay [3], 100 to 300 nM; in assay [4] it was 100 to 300 nM.
As for `COc1nc2c(Oc3ccc(NC(=O)C4(C(=O)Nc5ccc(F)cc5)CC4)c(C)c3)ncnc2cc1OCCCN1CCOCC1` [Compound 71, 1-N-(4-fluorophenyl)-1-N′-[4-[6-methoxy-7-(3-morpholin-4-ylpropoxy)pyrido[3,2-d]pyrimidin-4-yl]oxy-2-methylphenyl]cyclopropane-1,1-dicarboxamide], the IC50 in assay [1] is 10 to 100 nM; in assay [2] it was more than 300 nM; in assay [3], 100 to 300 nM; in assay [4], 10 to 100 nM.
For `COc1nc2c(Oc3cc(F)c(NC(=O)C4(C(=O)Nc5ccc(F)cc5)CC4)cc3F)ncnc2cc1OCCCN1CCOCC1` [Compound 72, 1-N′-[2,5-difluoro-4-[6-methoxy-7-(3-morpholin-4-ylpropoxy)pyrido[3,2-d]pyrimidin-4-yl]oxyphenyl]-1-N-(4-fluorophenyl)cyclo-propane-1,1-dicarboxamide], the IC50 in assay [1] is not above 10 nM; in assay [2], 10 to 100 nM; in assay [3], 10 to 100 nM; in assay [4], 10 to 100 nM.
Regarding `COc1nc2c(Oc3ccc(NC(=O)C4(C(=O)Nc5ccc(F)cc5)CC4)c(F)c3F)ncnc2cc1OCCCN1CCOCC1` [Compound 73, 1-N′-[2,3-difluoro-4-[6-methoxy-7-(3-morpholin-4-ylpropoxy)pyrido[3,2-d]pyrimidin-4-yl]oxyphenyl]-1-N-(4-fluoro-phenyl)cyclopropane-1,1-dicarboxamide], the IC50 in assay [1] is not above 10 nM; in assay [2], not above 10 nM; in assay [3] it was 10 to 100 nM; in assay [4], not above 10 nM.
